In patent US20090275557A1, “Novel Composition for Treatment of Diseases Related to Activated Lymphocytes” (Immune Control, Inc., priority 2008, published 2009):

System: bovine type 2 collagen immunized rats
Assay: Collagen-induced arthritis assay, IP injection protocol, ankle diameter
Assay type: in vivo, rat
Settings: IP injection 10 mg/kg once per day, study days 1-3; observed on study days 2-4
Experimental: Female Lewis rats (CR) weighing between 125-200 g were immunized with bovine type 2 collagen, 2 mg/ml in a 1:1 solution of 0.01 N acetic acid and Freund's incomplete adjuvant (“FIA”). A 0.1 ml portion of the collagen solution was injected id (intradermally) at three sites on the rat. Rats were immunized with the collagen solution on days 1 and 6 of the study. […] On day 9 (study day “0”), baseline ankle diameters were measured. On days 10-15 (study days 1-6), the rats were then treated, via oral gavage, with either 1, 5, or 25 mg/kg of one of ICI-1259 or ICI-1260, prepared as described below. Ankle diameter measurements were measured on each of days 10-16.
Compounds ICI-1259, ICI-1260, ICI-1505, and ICI-1506 were administered via IP injection to treat collagent-induced arthritis in a variation of the experiments described above. Under the protocol of the IP injection experiments, animal were immunized with Bovine Type 2 collagen as previously described. […] On day 9 (study day “0”), baseline ankle diameters were measured. On days 10-12 (study days 1-3), the rats were then treated once per day, via IP injection, with one of ICI-1259, ICI-1260, ICI-1505, or ICI-1506 at 10 mg/kg. Ankle diameter in the immunized rodents was measured on each of days 10-13 as well as on day 14. […] See FIG. 18 (ICI-1259, ICI-1260, and ICI-1505) and FIG. 19 (ICI-1506).
In a separate study, using the IP injection protocol described above, ICI-1259 and 1260 were each dosed at 2 mg/kg and 0.4 mg/kg.

SMILES: CN(C)CCCN1CCC(CCCN2c3ccccc3Sc3ccc(C(F)(F)F)cc32)CC1 [ICI-1505, N,N-dimethyl-3-(4-(3-(2-(trifluoromethyl)-10H-phenothiazin-10-yl)propyl)piperidin-1-yl)propan-1-amine]
- reduction in ankle swelling (ankle diameter): statistically significant results were observed

SMILES: FC(F)(F)c1ccc2c(c1)N(CCCC1CCN(CCCN3CCCCC3)CC1)c1ccccc1S2 [ICI-1506, 10-(3-(1-(3-(piperidin-1-yl)propyl)piperidin-4-yl)propyl)-2-(trifluoromethyl)-10H-phenothiazine]
- reduction in ankle swelling (ankle diameter): statistically significant results were observed
